Experimental data published in patent EP0153845A2, “CRF analogs” (THE SALK INSTITUTE FOR BIOLOGICAL STUDIES, priority 1984, dated 1985).
Square brackets hold non-standard residues; d marks the D form. Ends that are not written are not given here. Peptide text beside a SMILES is read from it. * marks the point of attachment. hArg = N=C(N)NCCCC[C@H](N)C(=O)O; Nle = CCCC[C@H](N)C(=O)O; Orn = NCCC[C@H](N)C(=O)O; Bz = O=C(c1ccccc1)*

Columns and labels:
[1] = molecular target: T1, cultured rat pituitary cells (Rattus norvegicus, UniProt P35353); assay: Stimulation of ACTH and β-endorphin secretion by cultured rat pituitary cells (general procedure of Example III); type: cell-based; conditions: general procedure of Example III
T1 sequence (P35353 24-415): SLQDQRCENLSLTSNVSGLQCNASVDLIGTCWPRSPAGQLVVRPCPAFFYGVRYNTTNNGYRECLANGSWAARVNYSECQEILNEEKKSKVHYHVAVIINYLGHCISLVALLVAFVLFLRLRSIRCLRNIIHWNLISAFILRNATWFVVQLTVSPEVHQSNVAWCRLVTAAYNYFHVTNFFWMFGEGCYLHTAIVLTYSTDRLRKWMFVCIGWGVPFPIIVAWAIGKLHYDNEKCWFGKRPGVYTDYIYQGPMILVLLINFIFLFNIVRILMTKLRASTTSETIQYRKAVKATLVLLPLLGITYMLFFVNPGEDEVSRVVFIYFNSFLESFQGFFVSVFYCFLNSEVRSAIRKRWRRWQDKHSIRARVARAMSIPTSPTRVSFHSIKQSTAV
Method: The synthetic peptide AHC and oCRF were examined for their effects on the secretion of ACTH and B-endorphin in vitro and was also in vivo. The potency of synthetic oCRF to stimulate the secretion of ACTH and β-endorphin by cultured rat pituitary cells was measured using the procedure as generally set forth in Endocrinology, 91, 562 (1972). […] In.vivo testing is carried out using the general procedure set forth in C. Rivier et al., Science, 218, 377 (1982).

[2] = Lowering of blood pressure, in vivo testing by the general procedure of Example III

Row | Molecule | secretion of ACTH and β-END-LI [1] | lowering of blood pressure [2]
1 | CC[C@H](C)[C@H](NC(=O)[C@@H](NC(=O)[C@H](CC(=O)O)NC(=O)[C@H](CC(C)C)NC(=O)[C@H](CC(C)C)NC(=O)[C@H](CC(C)C)NC(=O)[C@H](CCCNC(=N)N)NC(=O)[C@H](CC(N)=O)NC(=O)[C@H](CC(N)=O)NC(=O)[C@H](C)NC(=O)[C@H](C)NC(=O)[C@H](CCC(N)=O)NC(=O)[C@H](CCC(=O)O)NC(=O)[C@H](CCCCN)NC(=O)[C@H](CCC(=O)O)NC(=O)[C@H](CCCCN)NC(=O)[C@H](CCC(=O)O)NC(=O)[C@H](CCC(N)=O)NC(=O)[C@H](CCCCN)NC(=O)[C@H](CCCNC(=N)N)NC(=O)[C@H](C)NC(=O)[C@H](CCC(=O)O)NC(=O)[C@@H](NC(=O)[C@H](CCSC)NC(=O)[C@H](CCCCN)NC(=O)[C@H](CCCNC(=N)N)NC(=O)[C@H](CC(C)C)NC(=O)[C@H](CC(C)C)NC(=O)[C@H](CCC(=O)O)NC(=O)[C@H](CC(C)C)NC(=O)[C@H](CO)NC(=O)[C@H](CC(C)C)NC(=O)[C@H](CC(=O)O)NC(=O)[C@@H](NC(=O)[C@H](CO)NC(=O)[C@@H](NC(=O)[C@@H]1CCCN1C(=O)[C@@H]1CCCN1C(=O)CNC(=O)[C@@H]1CCC(=O)N1)[C@@H](C)CC)[C@@H](C)CC)[C@@H](C)CC)[C@@H](C)CC)C(N)=O | stimulates | very significant lowering of blood pressure
2 | H-SEEPPISLDLTFHLLREVLE[Nle]A[hArg]AEQLAQQAHLNRKLMEE[Nle]-NH2 | stimulates | very significant lowering of blood pressure
3 | H-SQ[dY][dP]PISLDLTFHLLRE[Nle]LE[Nle]AKAEQEAEQAALNRLLLEEA-NH2 [[D-Tyr^3, D-Pro^4, Nle^18, ^21]-AHC] | stimulates | very significant lowering of blood pressure
4 | CCCC[C@H](NC(=O)[C@H](CCC(=O)O)NC(=O)[C@H](CC(C)C)NC(=O)[C@H](CCCC)NC(=O)[C@H](CCC(=O)O)NC(=O)[C@H](CCCNC(=N)N)NC(=O)[C@H](CC(C)C)NC(=O)[C@H](CC(C)C)NC(=O)[C@H](Cc1c[nH]cn1)NC(=O)[C@H](Cc1ccccc1)NC(=O)[C@@H](NC(=O)[C@H](CC(C)C)NC(=O)[C@H](CC(=O)O)NC(=O)[C@H](CC(C)C)NC(=O)[C@H](CO)NC(=O)[C@@H](N)[C@@H](C)CC)[C@@H](C)O)C(=O)N[C@@H](C)C(=O)N[C@@H](CCCCN)C(=O)N[C@@H](C)C(=O)N[C@@H](CCC(=O)O)C(=O)N[C@@H](CCC(N)=O)C(=O)N[C@@H](CCC(=O)O)C(=O)N[C@@H](C)C(=O)N[C@@H](CCC(=O)O)C(=O)N[C@@H](CCC(N)=O)C(=O)N[C@@H](C)C(=O)N[C@@H](C)C(=O)N[C@@H](CC(C)C)C(=O)N[C@@H](CC(N)=O)C(=O)N[C@@H](CCCNC(=N)N)C(=O)N[C@@H](CCCNC(=N)N)C(=O)N[C@@H](CC(C)C)C(=O)N[C@@H](CC(C)C)C(=O)N[C@@H](CCC(=O)O)C(=O)N[C@@H](CCC(=O)O)C(=O)N[C@@H](C)C(N)=O [[Nle^18,21, Arg^36]-AHC(6-41)] (H-ISLDLTFHLLRE[Nle]LE[Nle]AKAEQEAEQAALNRRLLEEA-NH2) | stimulates | very significant lowering of blood pressure
5 | H-PPISIDLSLELLRKMIEIAKQEKEKEQAANNRLLMDTI-NH2 | stimulates | very significant lowering of blood pressure
6 | CCCC[C@H](NC(=O)[C@@H](NC(=O)[C@H](CC(C)C)NC(=O)[C@H](CC(=O)O)NC(=O)[C@H](CC(C)C)NC(=O)[C@H](CO)NC(=O)[C@@H](NC(=O)[C@@H]1CCCN1C(=O)[C@@H]1CCCN1C(=O)[C@H](CCC(=O)O)NC(=O)CNC(=O)c1ccccc1)[C@@H](C)CC)[C@@H](C)O)C(=O)N[C@@H](Cc1c[nH]cn1)C(=O)N[C@@H](CC(C)C)C(=O)N[C@@H](CC(C)C)C(=O)N[C@@H](CCCNC(=N)N)C(=O)N[C@@H](CCC(=O)O)C(=O)N[C@H](C(=O)N[C@@H](CC(C)C)C(=O)N[C@@H](CCC(=O)O)C(=O)N[C@@H](CCSC)C(=O)N[C@@H](C)C(=O)N[C@@H](CCCNC(=N)N)C(=O)N[C@@H](C)C(=O)N[C@@H](CCC(=O)O)C(=O)N[C@@H](CCC(N)=O)C(=O)N[C@@H](CC(C)C)C(=O)N[C@@H](C)C(=O)N[C@@H](CCC(=O)O)C(=O)N[C@@H](CCC(N)=O)C(=O)N[C@@H](C)C(=O)N[C@@H](Cc1c[nH]cn1)C(=O)N[C@@H](CO)C(=O)N[C@@H](CC(N)=O)C(=O)N[C@@H](CCCNC(=N)N)C(=O)N[C@@H](CCCNC(=N)N)C(=O)N[C@@H](CC(C)C)C(=O)N[C@@H](CCSC)C(=O)N[C@@H](CCC(=O)O)C(=O)N[C@H](C(=O)N[C@H](C(N)=O)[C@@H](C)CC)[C@@H](C)CC)C(C)C (Bz-GEPPISLDLT[Nle]HLLREVLEMARAEQLAEQAHSNRRLMEII-NH2) | stimulates | very significant lowering of blood pressure
7 | H-SEEPPISLDLTFHLLREVLE[Nle]ARAEQLAQQAYLNRKLMEEI-NH2 [[Nle^21, Tyr^32, Leu^33, Glu^40]-rCRF] | stimulates | very significant lowering of blood pressure to a greater extent than rCRF
8 | Ac-PPISLDLTFHLLREVLEMARAEQLAEQAHSNRKYMEEI-NH2 | stimulates | very significant lowering of blood pressure to a greater extent than rCRF
9 | H-SQEPPISLELTFHLLRE[Nle]LE[Nle]AKAEQEAEQAALNRLLLEEA-NH2 [[Glu^9, Nle^18' ^21]-AHC] | stimulates | very significant lowering of blood pressure
10 | H-SQEPPISLDLTFHLLREVLE[Nle]TKADQLAEQAHSNRKLLDIA-NH2 [[Nle^21,Glu^29]-oCRF] | stimulates | very significant lowering of blood pressure
11 | CCCC[C@H](NC(=O)[C@H](CCC(=O)O)NC(=O)[C@H](CCCNC(=N)N)NC(=O)[C@H](CC(C)C)NC(=O)[C@H](CC(C)C)NC(=O)[C@H](Cc1c[nH]cn1)NC(=O)[C@H](Cc1ccccc1)NC(=O)[C@@H](NC(=O)[C@H](CC(C)C)NC(=O)[C@H](CC(=O)O)NC(=O)[C@H](CC(C)C)NC(=O)[C@H](CO)NC(=O)[C@@H](NC(=O)[C@@H]1CCCN1C(=O)[C@@H]1CCCN1C(=O)[C@H](CCC(=O)O)NC(=O)[C@@H](N)CCC(N)=O)[C@@H](C)CC)[C@@H](C)O)C(=O)N[C@@H](CC(C)C)C(=O)N[C@@H](CCC(=O)O)C(=O)N[C@@H](CCSC)C(=O)N[C@H](C(=O)N[C@@H](CCCCN)C(=O)N[C@@H](C)C(=O)N[C@@H](CC(=O)O)C(=O)N[C@@H](CCC(N)=O)C(=O)N[C@@H](CC(C)C)C(=O)N[C@@H](C)C(=O)N[C@@H](CCC(N)=O)C(=O)N[C@@H](CCC(N)=O)C(=O)N[C@@H](C)C(=O)N[C@@H](Cc1c[nH]cn1)C(=O)N[C@@H](CO)C(=O)N[C@@H](CC(N)=O)C(=O)N[C@@H](CCCNC(=N)N)C(=O)N[C@@H](CCCCN)C(=O)N[C@@H](Cc1ccc(O)cc1)C(=O)N[C@@H](CC(C)C)C(=O)N[C@@H](CC(=O)O)C(=O)N[C@@H](CCC(=O)O)C(=O)N[C@@H](C)C(N)=O)[C@@H](C)O [[Nle^18,Tyr^37,Glu^40]-oCRF(2-41)] (H-QEPPISLDLTFHLLRE[Nle]LEMTKADQLAQQAHSNRKYLDEA-NH2) | stimulates | very significant lowering of blood pressure
12 | CCCC[C@H](NC(=O)[C@H](CCC(=O)O)NC(=O)[C@H](CC(C)C)NC(=O)[C@@H](NC(=O)[C@H](CCC(=O)O)NC(=O)[C@H](CCCNC(=N)N)NC(=O)[C@H](CC(C)C)NC(=O)[C@H](CC(C)C)NC(=O)[C@H](Cc1c[nH]cn1)NC(=O)[C@H](Cc1ccccc1)NC(=O)[C@@H](NC(=O)[C@H](CC(C)C)NC(=O)[C@H](CC(=O)O)NC(=O)[C@H](CC(C)C)NC(=O)[C@H](CO)NC(=O)[C@@H](NC(=O)[C@@H]1CCCN1C(=O)[C@H]1CCCN1)[C@@H](C)CC)[C@@H](C)O)C(C)C)C(=O)N[C@@H](C)C(=O)N[C@@H](CCCNC(=N)N)C(=O)N[C@@H](C)C(=O)N[C@@H](CCC(=O)O)C(=O)N[C@@H](CCC(N)=O)C(=O)N[C@@H](CC(C)C)C(=O)N[C@@H](C)C(=O)N[C@@H](CCC(N)=O)C(=O)N[C@@H](CCC(N)=O)C(=O)N[C@@H](C)C(=O)N[C@@H](Cc1c[nH]cn1)C(=O)N[C@@H](CO)C(=O)N[C@@H](CC(N)=O)C(=O)N[C@@H](CCCNC(=N)N)C(=O)N[C@@H](CCCCN)C(=O)N[C@@H](CC(C)C)C(=O)N[C@@H](CCSC)C(=O)N[C@@H](CCC(=O)O)C(=O)N[C@H](C(=O)N[C@H](C(N)=O)[C@@H](C)CC)[C@@H](C)CC [[D-Pro^4, Nle^21,38]-rCRF(4-41)] (H-[dP]PISLDLTFHLLREVLE[Nle]ARAEQLAQQAHSNRKLMEII-NH2) | stimulates the secretion of ACTH and B-END-LI in an amount greater than oCRF | very significant lowering of blood pressure
13 | H-SQEPPISLDLTFHLLRE[Nle]LE[Nle]AKAEQEAEQAALNRLLLEEA-NH2 [[Nle^18, ^21]-AHC] | stimulates | very significant lowering of blood pressure
14 | SQEPPISLDLTFHLLREVLEMA[Orn]AEQLAEQAHSNRKLLEII-NH2 [[Gln^2, Orn^23, Glu^29, Leu^38]-rCRF] | stimulates | very significant lowering of blood pressure
15 | H-PPISLDLTFHLLREVLEMARAEQLAQQAHLNRKLMEEI-NH2 | stimulates | very significant lowering of blood pressure
